# In the supplement of paper PMC10307832:
# Compound: Cc1ccc(Nc2nccc(N(C)c3ccc4c(C)n(C)nc4c3)n2)cc1S(N)(=O)=O [Pazopanib] + C[C@]1(O)C[C@@H](c2nc(-c3ccc4ccc(-c5ccccc5)nc4c3)c3c(N)nccn32)C1 [Linsitinib] (partner 1 µM)
# Experiment: relative viability (nuclei count vs DMSO), 5 days (fraction); higher = more cells survive
# Conditions: first compound 0.01 µM
# Summary of the method: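 Five library-drug doses in √10 steps were combined with a fixed anchor-drug dose, or a single drug was given alone, by pin tool to lung cancer cell lines in 1536-well plates the day after seeding. Nuclei were stained and counted after 5 days. Relative viability is the nuclei count in treated wells over that in vehicle wells, taken as the median of duplicate plates.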
row,Cell Line,relative viability
1,NCI-H441,0.536
2,NCI-H2009,1.22
3,A-427,1.09
4,NCI-H460,0.823
5,NCI-H727,0.311
6,NCI-H1734,0.823
7,NCI-H2405,0.729
8,SW 1573,0.716
9,201T,0.942
10,NCI-H1915,1.12
11,HCC-827,1.01
12,LXF-289,0.973
13,NCI-H23,0.505
14,NCI-H650,0.738
15,CAL-12T,0.83
16,NCI-H1651,1.11
17,EPLC-272H,0.98
18,NCI-H2228,0.741
19,NCI-H322M,0.772
20,NCI-H1437,1.04
21,NCI-H1755,0.934
22,NCI-H2023,0.699

# Same assay, conditions: first compound 0.03162 µM
row,Cell Line,relative viability
1,NCI-H358,0.626
2,NCI-H3122,1.06
3,HOP-62,0.973
4,HCC-44,0.673
5,LU99A,0.522
6,BEN,0.969
7,HARA,0.862
8,NCI-H441,0.528
9,LCLC-97TM1,0.229
10,NCI-H2009,1.22
11,A-427,1.09
12,NCI-H460,1.13
13,NCI-H727,0.336
14,NCI-H1734,0.963
15,NCI-H520,1.05
16,NCI-H2405,1.12
17,SW 1573,0.798

row,Cell Line,relative viability
1,NCI-H1793,0.871
2,201T,1.04
3,NCI-H1915,1.14
4,HCC-827,0.935
5,LXF-289,0.957
6,NCI-H23,0.629
7,NCI-H650,1.1
8,CAL-12T,0.927
9,NCI-H1651,0.901
10,EPLC-272H,1.13
11,NCI-H2228,0.665
12,NCI-H1792,0.534
13,NCI-H1355,0.909
14,NCI-H322M,1.06
15,NCI-H1437,1.07
16,NCI-H1755,0.995
17,NCI-H2023,0.637

# Same assay, conditions: first compound 0.1 µM
row,Cell Line,relative viability
1,NCI-H358,0.82
2,NCI-H3122,0.998
3,HCC-44,0.678
4,LU99A,0.589
5,BEN,0.894
6,HARA,1
7,NCI-H441,0.558
8,LCLC-97TM1,0.154
9,NCI-H2009,1.21
10,A-427,1.13
11,NCI-H460,0.838
12,NCI-H727,0.35
13,NCI-H1734,0.905
14,NCI-H520,1
15,NCI-H2405,1
16,SW 1573,0.817
17,NCI-H1793,0.835

row,Cell Line,relative viability
1,201T,1.06
2,NCI-H1915,1.08
3,HCC-827,0.938
4,LXF-289,0.921
5,NCI-H23,0.556
6,NCI-H650,0.808
7,CAL-12T,0.792
8,NCI-H1651,0.886
9,EPLC-272H,1.25
10,NCI-H2228,0.792
11,NCI-H1792,0.601
12,NCI-H1355,0.921
13,NCI-H322M,0.899
14,NCI-H1437,0.973
15,NCI-H1755,1.01
16,NCI-H2023,0.863

# Same assay, conditions: first compound 0.3162 µM
row,Cell Line,relative viability
1,NCI-H358,0.993
2,NCI-H3122,1.12
3,HOP-62,1
4,HCC-44,0.582
5,LU99A,0.565
6,BEN,0.956
7,HARA,1.03
8,NCI-H441,0.5
9,LCLC-97TM1,0.2
10,NCI-H2009,1.15
11,A-427,1.14
12,NCI-H460,0.98
13,NCI-H727,0.237
14,NCI-H1734,0.942
15,NCI-H520,0.946
16,NCI-H2405,1.12
17,SW 1573,0.935

row,Cell Line,relative viability
1,NCI-H1793,0.83
2,201T,1.06
3,NCI-H1915,1.03
4,HCC-827,0.933
5,LXF-289,0.93
6,NCI-H23,0.567
7,NCI-H650,0.92
8,CAL-12T,0.941
9,NCI-H1651,0.982
10,EPLC-272H,1.26
11,NCI-H2228,0.901
12,NCI-H1792,0.522
13,NCI-H1355,0.856
14,NCI-H322M,1.05
15,NCI-H1437,1.04
16,NCI-H1755,0.967
17,NCI-H2023,0.623

# Same assay, conditions: first compound 1 µM
row,Cell Line,relative viability
1,NCI-H358,0.821
2,NCI-H3122,0.945
3,HOP-62,0.859
4,HCC-44,0.722
5,LU99A,0.52
6,BEN,0.898
7,HARA,1.03
8,NCI-H441,0.612
9,LCLC-97TM1,0.211
10,NCI-H2009,1.06
11,A-427,1.16
12,NCI-H460,0.827
13,NCI-H727,0.245
14,NCI-H1734,0.933
15,NCI-H520,1.05
16,NCI-H2405,1.02
17,SW 1573,1.01

row,Cell Line,relative viability
1,NCI-H1793,0.905
2,201T,0.989
3,NCI-H1915,0.994
4,HCC-827,0.849
5,LXF-289,0.98
6,NCI-H23,0.842
7,NCI-H650,0.839
8,CAL-12T,0.981
9,NCI-H1651,1.08
10,EPLC-272H,1.17
11,NCI-H2228,0.607
12,NCI-H1792,0.588
13,NCI-H1355,0.861
14,NCI-H322M,0.972
15,NCI-H1437,1.05
16,NCI-H1755,1.01
17,NCI-H2023,0.682
